# Laboratory results published in patent publication US6140367A, “Use of ethylene diamine disuccinate for preparing a medicament with antiviral properties” (priority 1996, dated 2000).
# “Also recorded” adds a separate entry of the source. Read-outs that look alike come from different tables or passages of the source.
# Tests used:
# [1] = test system: Herpes simplex viruses; details: literature; cited from earlier work
# [2] = test system: viral DNA polymerases; details: cited from earlier work
# [3] = test system: human cytomegaloviruses; details: literature; cited from earlier work
# [4] = test system: Varicella zoster viruses; details: literature; cited from earlier work
# [5] = test system: hepatitis viruses; details: literature, cell cultures; cited from earlier work
# [6] = test system: viral reverse transcriptases; details: cited from earlier work
# [7] = test system: Epstein-Barr viruses; details: literature; cited from earlier work
# [8] = in vitro; format: cell-based; details: human, hff cells
# Protocol: (§1) Human foreskin fibroblasts (HFF) are grown in a nutrient medium consisting of Eagle's minimal essential medium (EMEM) to which 10% fetal calf serum has been added.
# (§2) The cell vitality is measured in an HFF cell culture using an MTT assay. The result is expressed as the TC50 value, which is the concentration at which 50% of the cells tested are still vital. In HFF cells, it is 435 μg/ml for the substances according to the invention.
# [9] = test system: cytomegaloviruses (CMV laboratory strain AD169); assay: ELISA of production of CMV late antigens in HFF cells; format: cell-based; details: for therapeutic index: quotient TC50/IC50, HFF cells
# Protocol: Antiviral activity: cells and viruses employed
# as §1
# The CMV laboratory strain AD169 is used. The viruses are propagated in EMEM nutrient medium to which 4% fetal calf serum has been added (maintenance medium). The virus titer is established by determining so-called immediate early antigen forming units (IEFUs) which are formed in the maintenance medium (Gerna et al. (1992), Antiviral Res. Vol. 19: 333-345).
# The antiviral effect of the substances on the propagation of cytomegaloviruses is determined by different parameters:
# In an ELISA (enzyme-linked immunosorbent assay), the production of CMV late antigens is determined. […] The substances according to the invention have an IC50 value of 4 μg/ml±1 μg/ml.
# [10] = literature; cited from earlier work
# [11] = mouse, in vivo; cited from earlier work
# [12] = test system: Human foreskin fibroblasts (HFF); assay: in vitro; format: cell-based; details: hff cells
# Protocol: as §1, §2
# [13] = cited from earlier work
# [14] = test system: DTH (delayed type hypersensitivity) reaction; details: intraperitoneal, mice; cited from earlier work
# [15] = test system: antibody production; details: intraperitoneal, mice; cited from earlier work
# [16] = test system: lymphocyte proliferation; assay: phytohemagglutinin stimulated lymphocyte proliferation ([3H]-thymidine); format: cell-based
# Protocol: For a proliferation assay, lymphocyte cultures were started in mixed lymphocyte cultures (MLC), or with 1% phytohemagglutinin (PHA), in a total volume of 200 μl of culture medium. 18 to 20 hours before the measurement, 0.1 μCi methyl-[^3 H]-thymidine (NEN, Germany) was added. Radiolabeled DNA was harvested on filter membranes (Schleicher & Schull, Germany). The radioactivity was quantified with a scintillation counter (Zinsser, Germany). The sample PBL pertains to peripheral blood lymphocytes as a control.
# [17] = test system: B cells; details: in vitro; cited from earlier work
# [18] = test system: phospholipase D; details: cited from earlier work
# [19] = test system: T cells; details: in vitro; cited from earlier work
# [20] = test system: phospholipase C; details: cited from earlier work
# [21] = Human betaherpesvirus 5, AD169, production of CMV late antigens, ELISA, HFF cells, read-out: inhibitory concentration IC50
# [22] = production of CMV late antigens, ELISA, HFF cells
compound,measurement,setting,value
O=C(O)P(=O)(O)O [Foscarnet],"antiviral activity, Herpes simplex viruses",[1],selective activity
same,inhibition of viral DNA polymerases,[2],inhibition
same,"antiviral activity, cytomegaloviruses",[3],virostatic effect
same,resistance of cytomegaloviruses,[3],more resistant
same,"antiviral activity, Varicella zoster viruses",[4],selective activity
same,"antiviral activity, hepatitis viruses",[5],selective activity
same,inhibition of viral reverse transcriptases,[6],inhibition
same,"antiviral activity, Epstein-Barr viruses",[7],selective activity
"O=C(O)C[C@@H](NCCN[C@H](CC(=O)O)C(=O)O)C(=O)O [(R,R)-N,N'-ethylenediamine disuccinate]",CC50,[8],≥ 100 µg/mL
same,IC50,[9]; [21],41 µg/mL
same,therapeutic index,[9],≥ 2.2
CC(=O)N(O)CCCCCNC(=O)CCC(=O)N(O)CCCCCNC(=O)CCC(=O)N(O)CCCCCN [desferrioxamine],CC50,[8],12 µg/mL
same,toxicity / side effects,[10],low toxicity
same,IC50,[9]; [21],4.1 µg/mL
same,therapeutic index,[9],3
same,"antiviral activity, Herpes simplex viruses",[1],successfully used
same,"antiviral activity, cytomegaloviruses",[3],successfully used
same,"antiviral activity, Varicella zoster viruses",[4],successfully used
same,"antiviral activity, Epstein-Barr viruses",[7],successfully used
"O=C(O)CC[C@H](NCCN[C@@H](CCC(=O)O)C(=O)O)C(=O)O [(S,S)-N,N'-ethylenediamine diglutamate]",CC50,[8],≥ 100 µg/mL
same,IC50,[9]; [21],≥ 100 µg/mL
O=C(O)CN(CCN(CC(=O)O)CC(=O)O)CCN(CC(=O)O)CC(=O)O [diethylenetriaminepentaacetic acid],CC50,[8],123 µg/mL
same,IC50,[9]; [21],4 µg/mL
same,therapeutic index,[9],31
"O=C(O)C[C@H](NCCN[C@H](CC(=O)O)C(=O)O)C(=O)O [(R,S)-N,N'-ethylenediamine disuccinate]",CC50,[8],≥ 100 µg/mL
same,IC50,[9]; [21],46 µg/mL
same,therapeutic index,[9],≥ 2.2
Nc1nc(O)c2ncn(COC(CO)CO)c2n1 [Ganciclovir],toxicity / side effects,[10],high side-effect level; also recorded: leads to neutropenia
same,"antiviral activity, Herpes simplex viruses",[1],effective
same,resistance of cytomegaloviruses,[3],more resistant
same,tumor development,[11],observed to develop tumors
same,"antiviral activity, Varicella zoster viruses",[4],effective
same,"antiviral activity, Epstein-Barr viruses",[7],effective
"(R,R)-N,N'-propylenediamine disuccinate",toxic concentration TC50,[12],≥ 100 µg/mL
same,inhibitory concentration IC50,[9]; [22],≥ 100 µg/mL
"CC(CN[C@@H](CCC(=O)O)C(=O)O)N[C@@H](CCC(=O)O)C(=O)O (stereo partly drawn) [(S,S)-N,N'-propylenediamine diglutamate]",toxic concentration TC50,[12],≥ 100 µg/mL
same,inhibitory concentration IC50,[9]; [22],≥ 100 µg/mL
"CC(CN[C@@H](CC(=O)O)C(=O)O)N[C@@H](CC(=O)O)C(=O)O (stereo partly drawn) [(S,S)-N,N'-propylenediamine disuccinate]",toxic concentration TC50,[12],≥ 100 µg/mL
same,inhibitory concentration IC50,[9]; [22],≥ 100 µg/mL
"O=C(O)C[C@H](NCCN[C@@H](CC(=O)O)C(=O)O)C(=O)O [(S,S)-N,N'-ethylenediamine disuccinate]",toxicity in mice,[13],relatively low
same,DTH (delayed type hypersensitivity) reaction,[14],suppressed
same,antibody production,[15],suppressed
same,CC50,[8],435 µg/mL
same,immunosuppressive activity,[16],inhibition of phytohemagglutinin stimulated lymphocyte proliferation
same,IC50,"[9]; Human betaherpesvirus 5, AD169, HFF, activity against cytomegaloviruses, read-out: IC50",4 µg/mL
same,therapeutic index,[9],109
same,blastogenesis of B cells,[17],suppressed
same,inhibition of phospholipase D,[18],inhibits
same,blastogenesis of T cells,[19],suppressed
same,inhibition of phospholipase C,[20],inhibits
